{"source": "patent US20050026896A1", "about": "“Platinum(II) and platinum(IV) complexes and their use” (Faustus Forschungs Cie. Translational Cancer Research GmbH, priority 2001, published 2005)", "system": "GMP as DNA constituent", "assay": "Reactivity with GMP: adduct formation under physiological and patho-physiological conditions", "type": "biochemical", "text": "The reactivity of the compound cis-dichloro-bis(2-ethanolamine)platinum(II) was examined under physiological and patho-physiological conditions (FIG. 2). […] Chem. 39(4): 836-842 (2000); Choi, Sunhee; Mahalingaiah, Shruthi; Delaney, Sarah; Neale, Nathan R.; Masood, Syed “Substitution and Reduction of Platinum(IV) Complexes by a Nucleotide, Guanosine 5′-Monophosphate” Inorg. Chem. 38(8): 1800-1805 (1999); Chen, Yu; Guo, Zijian; Parkinson, John A.; Sadler, Peter J. “Kinetic control of reactions of a sterically hindered platinum picoline anticancer complex with guanosine 5′-monophosphate and glutathione” J. Chem. Soc., Dalton Trans.), 21: 3577-3586 (1998); Bloemink, Marieke J.; Perez, Janice M. J.; Heetebrij, Robert J.; Reedijk, Jan “The new anticancer drug [(2R)-aminomethylpyrrolidine](1,1-cyclobutanedicarboxylato)platinum(II) and its toxic S enantiomer do interact differently with nucleic acids” J. Biol. Inorg. Chem. 4(5): 554-567 (1999).\nSimilar to Example 8, the reactivity of the compound bis(2-ethanolatoamine-κ^2N,O)platinum(II) (see Example 8 for the synthesis) was examined. In this respect, the proportion of the nucleotide not modified by the active substance was measured."}
{"compound": "C1C[O][Pt]2([NH]1)[NH]CC[O]2", "note": "[(SP-4-2)-[bis(2-aminoethanolato)-κ^2N,O]platinum(II)]", "values": [{"measurement": "speed of reaction with the nucleotide (proportion of the nucleotide not modified by the active substance)", "setting": "patho-physiological conditions (pH 6) compared to tissue free of disease (pH 7.4), FIG. 3", "result": "significantly increased speed"}]}
{"compound": "OCC[NH][Pt]([Cl])([Cl])[NH]CCO", "note": "[(SP-4-2)-dichloro[bis(2-hydroxyethylamine)]platinum(II)]", "values": [{"measurement": "selectivity of reaction, patho-physiological versus physiological conditions", "setting": "FIG. 2, comparison of left and right diagram", "result": "Selectivity is therefore present"}, {"measurement": "reactivity: reaction with the biological target (formation of adducts with GMP)", "setting": "patho-physiological conditions (FIG. 2, left diagram)", "result": "rapid reaction"}, {"measurement": "reactivity: reaction with the biological target (formation of adducts with GMP)", "setting": "physiological conditions (FIG. 2, right diagram)", "result": "clearly runs slower"}]}
